Experimental findings from US20220324835A1 (Nurix Therapeutics, Inc., priority 2018, published 2022) are described below.

One assay concerns the target Cbl-b (residues 36-427) (Homo sapiens, UniProt Q13191). The experiment in a line: Cbl-b binding assay (SPR, Biacore T200). The settings on record: 20° C., 1:1 binding model. The method in brief:
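Steps: capture protein on NeutrAvidin surface; inject compound dilutions (8 or 10 points from 100 or 50 μM) 50 s; allow 90-180 s dissociation; regenerate 20 s with 0.3 M NaCl. Runs at 20° C in HEPES pH 7.5/100 mM NaCl/2% DMSO; 1:1 fitting.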
On the technique in general: In SPR one partner is held on a chip, and binding of the other changes the refractive index at the surface.

Assay [1] has as its system T-cell. The experiment in a line: CD25 cell surface staining on T-cells co-stimulated with anti-CD3 and anti-CD28 antibody (Biological Example 2). The settings on record: Homo sapiens, T-cell, primary human total T-cells, baseline = anti-CD3/anti-CD28 stimulated cells without inhibitor, read-out: CD25 staining, Anti-CD3/Anti-CD28 stimulation, fold change over baseline; for fold induction at 0.3 µM: 0.3 μM compound; for fold induction at 1 µM: 1 μM compound. In kind it is cell-based, human. The method in brief:
(§1)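 T-cells were stimulated with anti-CD3 antibody alone or with anti-CD28 antibody, in the presence or absence of Cbl-b inhibitor. IL-2 secretion or CD25 surface staining was measured, and values expressed as fold over the uninhibited baseline […].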

Assay [2] concerns the target T1, Cbl-b (Homo sapiens, UniProt Q13191). Put plainly: Cbl-b activity assay (Cbl-b inhibition assay), TR-FRET of Cbl-b interaction with UbcH5B-Ub. In kind it is biochemical. The conditions noted are these: assay buffer with 100 mM NaCl, 60 nM Src kinase; read-out: Cbl-b activity IC50. The method in brief:
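UbcH5B (C85K) conjugated to N-terminally Bodipy-Fluorescein-labeled ubiquitin served as the fluorescent partner. After compound preincubation, Src kinase (60 nM) with 1 mM ATP and 5 mM MgCl2 (final) was added for 1.5 h, followed by a further 1 h incubation. Some values were obtained with 50 mM NaCl and 30 nM Src.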

Assay [3] deals with T-cell. The experiment in a line: CD25 cell surface staining on T-cells stimulated with anti-CD3 antibody alone (Biological Example 2). In kind it is cell-based. The conditions noted are these: primary human total T-cells, baseline = anti-CD3/anti-CD28 stimulated cells without inhibitor, read-out: CD25 staining, Anti-CD3 stimulation, fold change over baseline; for fold induction at 1 µM: 1 μM compound.

Assay [4] deals with T-cell. Put plainly: IL-2 secretion from T-cells stimulated with anti-CD3 antibody alone (Biological Example 2). The settings on record: primary human total T-cells, read-out: IL-2 secretion, Anti-CD3 stimulation, fold change over baseline; for fold induction at 1 µM: 1 μM compound. In kind it is cell-based.
Assay [5] addresses T1, Cbl-b. The experiment in a line: Cbl-b inhibition assay (Cbl-b activity assay, FRET, Biological Example 1; 100 mM NaCl, 60 nM Src kinase). In kind it is biochemical. The settings on record: upper bound stated in text lists; read-out: IC50 values in the Cbl-b inhibition assay of Biological Example 1. The method in brief:
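Steps: Src kinase phosphorylates N-terminal biotinylated Avi-tagged Cbl-b; phosphorylated Cbl-b binds Bodipy-fluorescein ubiquitin-loaded UbcH5B; streptavidin-terbium on Cbl-b sits close to the fluorescein label, producing FRET. Inhibitors block UbcH5B-Ub binding.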

Assay [6] has as its system T-cell. The experiment in a line: IL-2 secretion from T-cells co-stimulated with anti-CD3 and anti-CD28 antibody (Biological Example 2). In kind it is cell-based, human. The settings on record: Homo sapiens, T-cell, primary human total T-cells, baseline = anti-CD3/anti-CD28 stimulated cells without inhibitor, read-out: IL-2 secretion, Anti-CD3/Anti-CD28 stimulation, fold change over baseline; for fold induction at 0.3 µM: 0.3 μM compound; for fold induction at 1 µM: 1 μM compound. The method in brief: as §1

T1 sequence (Q13191 36-427): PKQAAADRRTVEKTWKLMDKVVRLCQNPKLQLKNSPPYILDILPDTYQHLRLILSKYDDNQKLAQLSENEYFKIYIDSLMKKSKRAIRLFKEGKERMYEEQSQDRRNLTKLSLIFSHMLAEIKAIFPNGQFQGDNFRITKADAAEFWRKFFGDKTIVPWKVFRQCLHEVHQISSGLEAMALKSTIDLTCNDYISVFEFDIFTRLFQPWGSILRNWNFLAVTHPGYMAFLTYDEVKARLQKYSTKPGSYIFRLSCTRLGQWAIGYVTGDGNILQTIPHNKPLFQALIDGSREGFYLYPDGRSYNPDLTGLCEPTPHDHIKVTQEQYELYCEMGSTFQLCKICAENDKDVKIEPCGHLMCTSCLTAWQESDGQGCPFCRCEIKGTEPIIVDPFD
Chain of Cbl-b (residues 36-427) (Q13191 36-427): as above

For the compound `Cn1cnnc1CC(C)(C)c1cccc(N2Cc3c(cc(C4CC4)cc3C(F)(F)F)C2=O)c1` [Compound 477, 6-cyclopropyl-2-(3-(2-methyl-1-(4-methyl-4H-1,2,4-triazol-3-yl)propan-2-yl)phenyl)-4-(trifluoromethyl)isoindolin-1-one], the Kd – broadly, the concentration at which binding is half-saturated – at Cbl-b (residues 36-427) was under 0.1 µM. Moreover, the figures for the fold induction at 0.3 µM in the assay on T-cell [1] and with T-cell [6] were 1.01 to 1.3 and 1.01 to 2.5, respectively. The fold induction at 1 µM is 1.01 to 1.3 with T-cell [1], 0.801 to 1 with T-cell [3], 0.101 to 0.15 with T-cell [4] and 2.51 to 5 in the assay with T-cell [6]. Besides, the fold induction at 4 µM with T-cell [1] (4 μM compound) lay in the range of 1.31 to 1.5; in the assay with T-cell [6] (4 μM compound), 5 to 7.5. For the same compound, the half-maximal inhibitory concentration (IC50) – broadly, the concentration at which inhibition is half-maximal – was under 0.1 µM at Cbl-b [2] and at most 0.1 µM at Cbl-b [5]. The fold induction at 8 µM was over 1 in the assay on T-cell [3] (8 μM compound) and over 0.201 with T-cell [4] (8 μM compound).
As for `Cn1cnnc1CC1(c2cccc(NC(=O)c3cc(Cn4ccnn4)nc(C4CC4)n3)c2)COC1` [Compound 506, 2-cyclopropyl-N-(3-{3-[(4-methyl-1,2,4-triazol-3-yl)methyl]oxetan-3-yl}phenyl)-6-(1,2,3-triazol-1-ylmethyl)pyrimidine-4-carboxamide], the dissociation constant (Kd) on Cbl-b (residues 36-427) is under 0.1 µM. The fold induction at 0.3 µM was in the range of 1.01 to 1.3 in the assay on T-cell [1] and 1.01 to 2.5 in the assay on T-cell [6]. In addition, the fold induction at 1 µM in the assay with T-cell [1] was in the range of 1.31 to 1.5; in the assay with T-cell [3] it was 0.801 to 1; in the assay with T-cell [4], 0.101 to 0.15; in the assay on T-cell [6] it was 2.51 to 5. Besides, the half-maximal inhibitory concentration (IC50) at Cbl-b [2] is under 0.1 µM; at Cbl-b [5], at most 0.1 µM.
At Cbl-b (residues 36-427), `Cn1cnnc1CC1(c2cccc(N3Cc4c(cc(CN5CC[C@H](F)C5)cc4C4CC4)C3=O)c2)COC1` [Example 554, (S)-4-cyclopropyl-6-((3-fluoropyrrolidin-1-yl)methyl)-2-(3-(3-((4-methyl-4H-1,2,4-triazol-3-yl)methyl)oxetan-3-yl)phenyl)isoindolin-1-one] had a Kd of under 0.1 µM. Also, the results for the fold induction at 0.3 µM in the assay on T-cell [1] and in the assay with T-cell [6] were 1.31 to 1.5 and over 7.5, respectively. Moreover, the fold induction at 1 µM in the assay on T-cell [1] is 1.31 to 1.5; with T-cell [3], over 1; in the assay with T-cell [4], 0.151 to 0.2; in the assay with T-cell [6], over 7.5. For the same compound, the IC50 on Cbl-b [2] was under 0.1 µM; on Cbl-b [5], at most 0.1 µM.
